Species on record: Rattus norvegicus
Assay: Open TG-GATES - Regimen: Single
Format: toxicity, organism-based, Sprague-Dawley
Design: regimen Single, gender Male, age 6 weeks
Conditions: in vivo, po, route gavage; for APTT / Bas / Eos / Fbg / Hb / Ht / Lym / MCH / MCHC / MCV / Mono / Neu / PT / Plat / RBC / Ret / WBC: tissue Blood; for KIDNEY_TOTAL: tissue Kidney; for LIVER: tissue Liver; for A/G / ALP / ALT / AST / BUN / CRE / Ca / Cl / DBIL / GLC / IP / K / LDH / Na / PL / RALB / TBIL / TC / TG / TP / gamma-GTP: tissue Plasma
[1] = 100 mg/kg, 3 h, dose level Middle
[2] = 100 mg/kg, 6 h, dose level Middle
[3] = 100 mg/kg, 9 h, dose level Middle
[4] = 100 mg/kg, 24 h, dose level Middle
[5] = 500 mg/kg, 3 h, dose level High
[6] = 500 mg/kg, 6 h, dose level High
[7] = 500 mg/kg, 9 h, dose level High
[8] = 500 mg/kg, 24 h, dose level High

## CN(CCOc1ccc(CC2SC(=O)NC2=O)cc1)c1ccccn1.O=C(O)/C=C\C(=O)O (stereo not drawn) [ROSIGLITAZONE MALEATE]
[1]
  TERMINAL_BW: 205.4 g
  APTT: 16.2 s
  Bas: 0%
  Eos: 1%
  Fbg: 217.8 mg/dL
  Hb: 13 g/dL
  Ht: 39.5%
  Lym: 77.2%
  MCH: 21.3 pg
  MCHC: 32.8%
  MCV: 65 fL
  Mono: 7.8%
  Neu: 14.4%
  PT: 12.2 s
  Plat: 119.4 x10_4/uL
  RBC: 607.6 x10_4/ul
  Ret: 8.6%
  WBC: 105 x10_2/uL
  KIDNEY_TOTAL: 0.8 g
  LIVER: 9.5 g
  A/G: 2.2
  ALP: 1374 IU/L
  ALT: 36.6 IU/L
  AST: 74.6 IU/L
  BUN: 13.4 mg/dL
  CRE: 0.4 mg/dL
  Ca: 11.6 mg/dL
  Cl: 104 meq/L
  DBIL: 0.014 mg/dL
  GLC: 189.2 mg/dL
  IP: 8.9 mg/dL
  K: 4.4 meq/L
  LDH: 107.8 IU/L
  Na: 139.6 meq/L
  PL: 133.2 mg/dL
  RALB: 3.6 g/dL
  TBIL: 0.046 mg/dL
  TC: 78.8 mg/dL
  TG: 75.6 mg/dL
  TP: 5.3 g/dL
  gamma-GTP: 0.8 IU/L
[2]
  TERMINAL_BW: 206.8 g
  APTT: 16.7 s
  Bas: 0%
  Eos: 1%
  Fbg: 221.8 mg/dL
  Hb: 12.4 g/dL
  Ht: 37.5%
  Lym: 67.4%
  MCH: 20.7 pg
  MCHC: 33.1%
  MCV: 62.5 fL
  Mono: 9.8%
  Neu: 22%
  PT: 12.4 s
  Plat: 124.2 x10_4/uL
  RBC: 600 x10_4/ul
  Ret: 8.9%
  WBC: 105.2 x10_2/uL
  KIDNEY_TOTAL: 0.8 g
  LIVER: 9 g
  A/G: 2.3
  ALP: 1392.2 IU/L
  ALT: 33.6 IU/L
  AST: 64 IU/L
  BUN: 10.2 mg/dL
  CRE: 0.4 mg/dL
  Ca: 11.1 mg/dL
  Cl: 104.2 meq/L
  DBIL: 0.016 mg/dL
  GLC: 179.2 mg/dL
  IP: 10 mg/dL
  K: 4.5 meq/L
  LDH: 82.2 IU/L
  Na: 138.4 meq/L
  PL: 127.8 mg/dL
  RALB: 3.6 g/dL
  TBIL: 0.042 mg/dL
  TC: 73 mg/dL
  TG: 64.2 mg/dL
  TP: 5.2 g/dL
  gamma-GTP: 1 IU/L
[3]
  TERMINAL_BW: 198.2 g
  APTT: 16.2 s
  Bas: 0%
  Eos: 1%
  Fbg: 217 mg/dL
  Hb: 12.7 g/dL
  Ht: 38.5%
  Lym: 75.6%
  MCH: 22.1 pg
  MCHC: 32.9%
  MCV: 67.1 fL
  Mono: 4.8%
  Neu: 19%
  PT: 12.3 s
  Plat: 118.4 x10_4/uL
  RBC: 574.2 x10_4/ul
  Ret: 8.9%
  WBC: 85 x10_2/uL
  KIDNEY_TOTAL: 0.8 g
  LIVER: 8.3 g
  A/G: 2.5
  ALP: 1125.2 IU/L
  ALT: 28 IU/L
  AST: 62 IU/L
  BUN: 11.2 mg/dL
  CRE: 0.4 mg/dL
  Ca: 11.7 mg/dL
  Cl: 103.8 meq/L
  DBIL: 0.014 mg/dL
  GLC: 190.6 mg/dL
  IP: 11.3 mg/dL
  K: 4.3 meq/L
  LDH: 120.2 IU/L
  Na: 140.4 meq/L
  PL: 122.2 mg/dL
  RALB: 3.9 g/dL
  TBIL: 0.046 mg/dL
  TC: 70.2 mg/dL
  TG: 49.6 mg/dL
  TP: 5.5 g/dL
  gamma-GTP: 0.6 IU/L
[4]
  TERMINAL_BW: 224.2 g
  APTT: 16.3 s
  Bas: 0%
  Eos: 0.8%
  Fbg: 213.2 mg/dL
  Hb: 12.4 g/dL
  Ht: 38%
  Lym: 68.8%
  MCH: 20.9 pg
  MCHC: 32.7%
  MCV: 63.8 fL
  Mono: 9.4%
  Neu: 21.2%
  PT: 11.5 s
  Plat: 120.6 x10_4/uL
  RBC: 596.2 x10_4/ul
  Ret: 7.7%
  WBC: 74.8 x10_2/uL
  KIDNEY_TOTAL: 0.6 g
  LIVER: 11.2 g
  A/G: 2.7
  ALP: 1341.6 IU/L
  ALT: 40.2 IU/L
  AST: 71.2 IU/L
  BUN: 16.6 mg/dL
  CRE: 0.4 mg/dL
  Ca: 11.3 mg/dL
  Cl: 104.4 meq/L
  DBIL: 0.016 mg/dL
  GLC: 187.6 mg/dL
  IP: 7.8 mg/dL
  K: 4.5 meq/L
  LDH: 123.8 IU/L
  Na: 140 meq/L
  PL: 161.6 mg/dL
  RALB: 3.8 g/dL
  TBIL: 0.032 mg/dL
  TC: 90.6 mg/dL
  TG: 127.2 mg/dL
  TP: 5.3 g/dL
  gamma-GTP: 1 IU/L
[5]
  TERMINAL_BW: 202.9 g
  APTT: 16.4 s
  Bas: 0%
  Eos: 0.6%
  Fbg: 224.2 mg/dL
  Hb: 13 g/dL
  Ht: 39.4%
  Lym: 77.6%
  MCH: 21.2 pg
  MCHC: 33.1%
  MCV: 64.1 fL
  Mono: 7.8%
  Neu: 14.2%
  PT: 12.3 s
  Plat: 129.2 x10_4/uL
  RBC: 613.8 x10_4/ul
  Ret: 9.1%
  WBC: 85.4 x10_2/uL
  KIDNEY_TOTAL: 0.6 g
  LIVER: 8.9 g
  A/G: 2.3
  ALP: 1535.8 IU/L
  ALT: 35.8 IU/L
  AST: 69.6 IU/L
  BUN: 15 mg/dL
  CRE: 0.5 mg/dL
  Ca: 11.6 mg/dL
  Cl: 102.2 meq/L
  DBIL: 0.01 mg/dL
  GLC: 185.2 mg/dL
  IP: 10.5 mg/dL
  K: 4.2 meq/L
  LDH: 76.8 IU/L
  Na: 140.4 meq/L
  PL: 137 mg/dL
  RALB: 3.9 g/dL
  TBIL: 0.036 mg/dL
  TC: 84.2 mg/dL
  TG: 78 mg/dL
  TP: 5.6 g/dL
  gamma-GTP: 1 IU/L
[6]
  TERMINAL_BW: 206.5 g
  APTT: 16.5 s
  Bas: 0%
  Eos: 1%
  Fbg: 217 mg/dL
  Hb: 13.2 g/dL
  Ht: 40%
  Lym: 62.6%
  MCH: 21 pg
  MCHC: 32.9%
  MCV: 63.8 fL
  Mono: 11.6%
  Neu: 24.8%
  PT: 11.8 s
  Plat: 118.4 x10_4/uL
  RBC: 626.8 x10_4/ul
  Ret: 9.7%
  WBC: 75.4 x10_2/uL
  KIDNEY_TOTAL: 0.7 g
  LIVER: 8.6 g
  A/G: 2.4
  ALP: 1138.8 IU/L
  ALT: 30.8 IU/L
  AST: 69 IU/L
  BUN: 10 mg/dL
  CRE: 0.5 mg/dL
  Ca: 11 mg/dL
  Cl: 104 meq/L
  DBIL: 0.014 mg/dL
  GLC: 176.4 mg/dL
  IP: 10.6 mg/dL
  K: 4 meq/L
  LDH: 70.4 IU/L
  Na: 139.6 meq/L
  PL: 140.4 mg/dL
  RALB: 3.9 g/dL
  TBIL: 0.042 mg/dL
  TC: 89.2 mg/dL
  TG: 69.2 mg/dL
  TP: 5.5 g/dL
  gamma-GTP: 1 IU/L
[7]
  TERMINAL_BW: 203.4 g
  APTT: 17 s
  Bas: 0%
  Eos: 0.8%
  Fbg: 211.4 mg/dL
  Hb: 12.4 g/dL
  Ht: 37.6%
  Lym: 77.4%
  MCH: 21.5 pg
  MCHC: 33%
  MCV: 65.2 fL
  Mono: 5.2%
  Neu: 16.6%
  PT: 12.4 s
  Plat: 128.2 x10_4/uL
  RBC: 577 x10_4/ul
  Ret: 9.1%
  WBC: 77.4 x10_2/uL
  KIDNEY_TOTAL: 0.6 g
  LIVER: 7.9 g
  A/G: 2.6
  ALP: 1267.6 IU/L
  ALT: 28.2 IU/L
  AST: 65.4 IU/L
  BUN: 12 mg/dL
  CRE: 0.4 mg/dL
  Ca: 11.8 mg/dL
  Cl: 104.2 meq/L
  DBIL: 0.016 mg/dL
  GLC: 180.8 mg/dL
  IP: 10.9 mg/dL
  K: 4.6 meq/L
  LDH: 94.6 IU/L
  Na: 139.8 meq/L
  PL: 114.8 mg/dL
  RALB: 3.9 g/dL
  TBIL: 0.048 mg/dL
  TC: 63.6 mg/dL
  TG: 68.6 mg/dL
  TP: 5.4 g/dL
  gamma-GTP: 0.4 IU/L
[8]
  TERMINAL_BW: 222.1 g
  APTT: 16.4 s
  Bas: 0%
  Eos: 1.2%
  Fbg: 212.6 mg/dL
  Hb: 12.3 g/dL
  Ht: 37.6%
  Lym: 65.6%
  MCH: 21.3 pg
  MCHC: 32.7%
  MCV: 65.1 fL
  Mono: 8.4%
  Neu: 24.8%
  PT: 12.1 s
  Plat: 128.4 x10_4/uL
  RBC: 578.4 x10_4/ul
  Ret: 8.4%
  WBC: 96 x10_2/uL
  KIDNEY_TOTAL: 0.7 g
  LIVER: 10.3 g
  A/G: 2.7
  ALP: 1526.8 IU/L
  ALT: 34.6 IU/L
  AST: 65.2 IU/L
  BUN: 18 mg/dL
  CRE: 0.4 mg/dL
  Ca: 11.1 mg/dL
  Cl: 104.2 meq/L
  DBIL: 0.02 mg/dL
  GLC: 183.8 mg/dL
  IP: 7.9 mg/dL
  K: 4.6 meq/L
  LDH: 87.6 IU/L
  Na: 140.4 meq/L
  PL: 127 mg/dL
  RALB: 3.9 g/dL
  TBIL: 0.03 mg/dL
  TC: 70.2 mg/dL
  TG: 113.6 mg/dL
  TP: 5.3 g/dL
  gamma-GTP: 1 IU/L
